Like-named read-outs stand apart in the source and are kept apart here.

In assay [1] the test system is Mycobacterium tuberculosis rpoB gene mutants. More on the design: key to DRUG-SUSCEPTIBILITY: R represents resistance; S represents susceptibility. The following applies: cited from earlier work.
For assay [2], the system named is Mycobacterium tuberculosis. Format: cell-based.

Take `CO[C@H]1/C=C/O[C@@]2(C)Oc3c(C)c(O)c4c(c3C2=O)C2=NC3(CCN(CC(C)C)CC3)NC2=C(NC(=O)/C(C)=C\C=C\[C@H](C)[C@H](O)[C@@H](C)[C@@H](O)[C@@H](C)[C@H](OC(C)=O)[C@@H]1C)C4=O` [rifabutin, Rifabutin]: the DRUG-SUSCEPTIBILITY entry in assay [1] (509 MUTANT (probe Mt509)) was “S”; in assay [1] (509 WILD TYPE (probe Wt509)), “RFP-S, RBU-S”; in assay [1] (524 MUTANT (probe Mt524)), “RFP-R, RBU-R”; in assay [1] (524 WILD TYPE (probe Wt524)), “RFP-S, RBU-S”; in assay [1] (533 MUTANT (probe Mt533)), “RFP-R, RBU-R”; in assay [1] (533 WILD TYPE (probe Wt533)), “RFP-S, RBU-S”. Also, the “drug-susceptibility of codon 526 mutants” value in assay [1] (codon 526 His>Gln, Gly, Asn, Ala, or Cys) is on record as “susceptibility”; in assay [1] (codon 526 His>Tyr, Pro, Arg, or Asp), “resistance”.

As for `CO[C@H]1/C=C/O[C@@]2(C)Oc3c(C)c(O)c4c(O)c(c(/C=N/N5CCN(C)CC5)c(O)c4c3C2=O)NC(=O)/C(C)=C\C=C\[C@H](C)[C@H](O)[C@@H](C)[C@@H](O)[C@@H](C)[C@H](OC(C)=O)[C@@H]1C` [rifampin], the drug-susceptibility test result in assay [2] is “resistance”. Further, the DRUG-SUSCEPTIBILITY entry in assay [1] (509 MUTANT (probe Mt509)) is recorded as “R”; in assay [1] (509 WILD TYPE (probe Wt509)), “RFP-S, RBU-S”; in assay [1] (524 MUTANT (probe Mt524)), “RFP-R, RBU-R”; in assay [1] (524 WILD TYPE (probe Wt524)) it was “RFP-S, RBU-S”; in assay [1] (533 MUTANT (probe Mt533)), “RFP-R, RBU-R”; in assay [1] (533 WILD TYPE (probe Wt533)), “RFP-S, RBU-S”.

The values are drawn from patent US20040038233A1, “Diagnosis kit for mycobacterium species indentification and drug-resistance detection and manufacturing method thereof” (priority 2000, published 2004).
